Laboratory results taken from PubChem BioAssay AID248 (DTP/NCI, 2004).
Where “and” joins values, the source holds several entries; their conditions need not be identical. Equal entries are not always repeated. Inconclusive results and toxic doses are left out. Rule as the data show it: active = T/C of 150% or more; inactive = T/C below 125%.

System: L1210 leukemia ip in BDF1 mice, survival T/C
Assay: NCI In Vivo Anticancer Drug Screen. Data for tumor model L1210 Leukemia (intraperitoneal) in B6D2F1 (BDF1) mice
Settings: endpoint: mean survival time, higher = longer survival
Outline: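 Survival endpoint. Drug-treated group vs vehicle group, expressed as T divided by C. Tumor passaged by transplantation.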

[1] = dose: 100.0 mg/kg/injection, schedule: Q01DX001 (ip), vehicle: Klucel (hydroxypropylcellulose) (HPC)
[2] = dose: 200.0 mg/kg/injection, schedule: Q01DX001 (ip), vehicle: Klucel (hydroxypropylcellulose) (HPC)
[3] = dose: 400.0 mg/kg/injection, schedule: Q01DX001 (ip), vehicle: Klucel (hydroxypropylcellulose) (HPC)
[4] = dose: 50.0 mg/kg/injection, schedule: Q01DX009 (ip), vehicle: saline
[5] = dose: 25.0 mg/kg/injection, schedule: Q01DX009 (ip), vehicle: saline with Tween-80
[6] = dose: 50.0 mg/kg/injection, schedule: Q01DX009 (ip), vehicle: saline with Tween-80
[7] = dose: 100.0 mg/kg/injection, schedule: Q01DX009 (ip), vehicle: saline
[8] = dose: 100.0 mg/kg/injection, schedule: Q04DX003 (ip), vehicle: Klucel (hydroxypropylcellulose) (HPC)
[9] = dose: 200.0 mg/kg/injection, schedule: Q01DX009 (ip), vehicle: saline
[10] = dose: 200.0 mg/kg/injection, schedule: Q04DX003 (ip), vehicle: Klucel (hydroxypropylcellulose) (HPC)
[11] = dose: 400.0 mg/kg/injection, schedule: Q04DX003 (ip), vehicle: Klucel (hydroxypropylcellulose) (HPC)
[12] = dose: 100.0 mg/kg/injection, schedule: Q01DX001 (ip), vehicle: saline
[13] = dose: 200.0 mg/kg/injection, schedule: Q01DX001 (ip), vehicle: saline
[14] = dose: 400.0 mg/kg/injection, schedule: Q01DX001 (ip), vehicle: saline
[15] = dose: 100.0 mg/kg/injection, schedule: Q01DX009 (ip), vehicle: Klucel (hydroxypropylcellulose) (HPC)
[16] = dose: 200.0 mg/kg/injection, schedule: Q01DX009 (ip), vehicle: Klucel (hydroxypropylcellulose) (HPC)
[17] = dose: 400.0 mg/kg/injection, schedule: Q01DX009 (ip), vehicle: Klucel (hydroxypropylcellulose) (HPC)

Measured: T/C

CCOC(=O)c1[nH]c(C)c(/C(=N/NC(N)=O)C(=O)OC)c1C
inactive: [1] 103 % of control | [2] 110 % of control | [3] 98 % of control

CN1CCCCC1CCN1c2ccccc2Sc2ccc(S(C)=O)cc21 (stereo unspecified)
inactive: dose: 6.25 mg/kg/injection, schedule: Q01DX009 (ip), vehicle: saline 97 % of control | dose: 12.5 mg/kg/injection, schedule: Q01DX009 (ip), vehicle: saline 98 % of control and 101 % of control and 108 % of control | dose: 25.0 mg/kg/injection, schedule: Q01DX009 (ip), vehicle: saline 100 % of control and 101 % of control (2×) | dose: 25.0 mg/kg/injection, schedule: Q04DX003 (ip), vehicle: saline 112 % of control | [4] 119 % of control | dose: 50.0 mg/kg/injection, schedule: Q04DX003 (ip), vehicle: saline 115 % of control | dose: 100.0 mg/kg/injection, schedule: Q04DX003 (ip), vehicle: saline 105 % of control

CCC(C(C)=O)C(C)=O.CCC(C(C)=O)C(C)=O.[Cu]
inactive: dose: 6.0 mg/kg/injection, schedule: Q01DX001 (ip), vehicle: saline 95 % of control | dose: 12.0 mg/kg/injection, schedule: Q01DX001 (ip), vehicle: saline 101 % of control | dose: 25.0 mg/kg/injection, schedule: Q01DX001 (ip), vehicle: saline 112 % of control

O=C(/C=C(\Br)c1ccccc1)c1ccccc1
inactive: dose: 25.0 mg/kg/injection, schedule: Q01DX005 (ip), vehicle: saline with Tween-80 93 % of control | [5] 88 % of control | dose: 25.0 mg/kg/injection, schedule: Q04DX002 (ip), vehicle: saline with Tween-80 102 % of control | dose: 50.0 mg/kg/injection, schedule: Q01DX005 (ip), vehicle: saline with Tween-80 97 % of control | [6] 98 % of control | dose: 50.0 mg/kg/injection, schedule: Q04DX002 (ip), vehicle: saline with Tween-80 109 % of control | dose: 100.0 mg/kg/injection, schedule: Q01DX005 (ip), vehicle: saline with Tween-80 108 % of control | dose: 100.0 mg/kg/injection, schedule: Q04DX002 (ip), vehicle: saline with Tween-80 91 % of control

c1ccc(-c2c[nH]c(-c3ccccc3)c2-c2ccccc2)cc1
inactive: dose: 75.0 mg/kg/injection, schedule: Q01DX001 (ip), vehicle: carboxymethylcellulose (CMC) 93 % of control | dose: 150.0 mg/kg/injection, schedule: Q01DX001 (ip), vehicle: carboxymethylcellulose (CMC) 93 % of control | dose: 300.0 mg/kg/injection, schedule: Q01DX001 (ip), vehicle: carboxymethylcellulose (CMC) 93 % of control

O=C(O)C(O)C(O)C(O)C(O)C(=O)O (stereo unspecified)
inactive: [4] 92 % of control | [7] 94 % of control | [8] 95 % of control | [9] 89 % of control | [10] 91 % of control | dose: 400.0 mg/kg/injection, schedule: Q01DX009 (ip), vehicle: saline 92 % of control | [11] 91 % of control | dose: 600.0 mg/kg/injection, schedule: Q01DX001 (ip), vehicle: saline 90 % of control | dose: 600.0 mg/kg/injection, schedule: Q01DX009 (ip), vehicle: saline 100 % of control | dose: 800.0 mg/kg/injection, schedule: Q01DX001 (ip), vehicle: saline 93 % of control and 90 % of control | dose: 800.0 mg/kg/injection, schedule: Q01DX009 (ip), vehicle: saline 97 % of control | dose: 1000.0 mg/kg/injection, schedule: Q01DX001 (ip), vehicle: saline 95 % of control and 88 % of control | dose: 1000.0 mg/kg/injection, schedule: Q01DX009 (ip), vehicle: saline 100 % of control

O=C(O)CSCc1ccccc1
inactive: [5] 102 % of control | [6] 95 % of control | dose: 100.0 mg/kg/injection, schedule: Q01DX009 (ip), vehicle: saline with Tween-80 100 % of control and 102 % of control | [8] 94 % of control | [10] 100 % of control | [11] 102 % of control

[C](#Cc1ccccc1)[Hg][C]#Cc1ccccc1
inactive: [8] 103 % of control | [10] 94 % of control | [11] 96 % of control

CCC(Cl)COP(=O)(OCC(Cl)CC)O/C(C)=C(\C)OP(=S)(OCC(Cl)CC)OCC(Cl)CC (stereo unspecified)
inactive: dose: 100.0 mg/kg/injection, schedule: Q04DX002 (sc), vehicle: olive oil, sesame oil, peanut oil 108 % of control | dose: 200.0 mg/kg/injection, schedule: Q04DX002 (sc), vehicle: olive oil, sesame oil, peanut oil 102 % of control | dose: 400.0 mg/kg/injection, schedule: Q04DX002 (sc), vehicle: olive oil, sesame oil, peanut oil 102 % of control

S=P(S)(c1ccccc1)c1ccccc1
inactive: dose: 100.0 mg/kg/injection, schedule: Q04DX003 (ip), vehicle: saline with Tween-80 91 % of control | dose: 200.0 mg/kg/injection, schedule: Q04DX003 (ip), vehicle: saline with Tween-80 94 % of control | dose: 400.0 mg/kg/injection, schedule: Q04DX003 (ip), vehicle: saline with Tween-80 100 % of control

COc1ccccc1CN1CCCN(Cc2ccccc2OC)C1
inactive: dose: 100.0 mg/kg/injection, schedule: Q01DX001 (ip), vehicle: carboxymethylcellulose (CMC) 97 % of control | dose: 200.0 mg/kg/injection, schedule: Q01DX001 (ip), vehicle: carboxymethylcellulose (CMC) 105 % of control | dose: 400.0 mg/kg/injection, schedule: Q01DX001 (ip), vehicle: carboxymethylcellulose (CMC) 97 % of control

COc1ccc(CC(=O)C2C(=O)N(C)c3ccccc32)cc1OC (stereo unspecified)
inactive: dose: 50.0 mg/kg/injection, schedule: Q01DX001 (ip), vehicle: saline 104 % of control | [12] 102 % of control | [13] 96 % of control | [14] 98 % of control

CC(=O)N1C(=O)c2ccccc2C1=O
inactive: [1] 95 % of control | [15] 93 % of control | [2] 92 % of control | [16] 93 % of control | [3] 92 % of control | [17] 90 % of control

O=C(CCCCC(=O)OCCBr)OCCBr
inactive: dose: 20.0 mg/kg/injection, schedule: Q04DX003 (ip), vehicle: Klucel (hydroxypropylcellulose) (HPC) 100 % of control | dose: 40.0 mg/kg/injection, schedule: Q04DX003 (ip), vehicle: Klucel (hydroxypropylcellulose) (HPC) 105 % of control | dose: 80.0 mg/kg/injection, schedule: Q04DX003 (ip), vehicle: Klucel (hydroxypropylcellulose) (HPC) 114 % of control | [10] 102 % of control

CCCCC(CC)COC(=O)CC(CC(=O)OCC(CC)CCCC)C(=O)OCC(CC)CCCC (stereo unspecified)
inactive: [4] 111 % of control | [7] 97 % of control | [9] 92 % of control

CCOC(=O)c1cnc2ccccc2c1Cl
inactive: [12] 103 % of control and 87 % of control | [13] 105 % of control | [14] 103 % of control

Oc1ccccc1CNCc1ccccc1O
inactive: dose: 75.0 mg/kg/injection, schedule: Q01DX001 (ip), vehicle: saline 96 % of control | dose: 150.0 mg/kg/injection, schedule: Q01DX001 (ip), vehicle: saline 96 % of control

CCOC(=O)C1(C(=O)OCC)CCC1
inactive: [12] 103 % of control | [13] 94 % of control

Cc1ccc([P+](Cc2ccccc2)(c2ccccc2)c2cccc3ccccc23)cc1 (stereo unspecified)
inactive: dose: 15.0 mg/kg/injection, schedule: Q01DX001 (ip), vehicle: carboxymethylcellulose (CMC) 94 % of control | dose: 30.0 mg/kg/injection, schedule: Q01DX001 (ip), vehicle: carboxymethylcellulose (CMC) 93 % of control

O=C1C=CC(=NCl)C=C1
inactive: dose: 1.25 mg/kg/injection, schedule: Q01DX015 (ip), vehicle: carboxymethylcellulose (CMC) 92 % of control | dose: 2.5 mg/kg/injection, schedule: Q01DX015 (ip), vehicle: carboxymethylcellulose (CMC) 91 % of control | dose: 5.0 mg/kg/injection, schedule: Q01DX001 (ip), vehicle: carboxymethylcellulose (CMC) 114 % of control | dose: 5.0 mg/kg/injection, schedule: Q01DX015 (ip), vehicle: carboxymethylcellulose (CMC) 95 % of control | dose: 10.0 mg/kg/injection, schedule: Q01DX001 (ip), vehicle: carboxymethylcellulose (CMC) 111 % of control

O=[N+]([O-])c1cc(Cl)cc2c1-c1c(Cl)cc(Cl)cc1C2Br (stereo unspecified)
inactive: [15] 101 % of control | [8] 98 % of control | [16] 104 % of control | [10] 96 % of control | [17] 103 % of control | [11] 93 % of control

OC1(C#CI)CCCCC1
inactive: [15] 100 % of control | [16] 96 % of control

NC(=O)CS
inactive: [12] 96 % of control | [13] 105 % of control
